The NIST ThermoML archive (doi:10.1021/je034223r)

Legend:
[1] = heat capacity at constant pressure per volume; xn = mol fraction of the nth substance listed; conditions: 298.15 K, 101.3 kPa, Liquid, Flow calorimetry
[2] = excess molar enthalpy (molar enthalpy of mixing); xn = mol fraction of the nth substance listed; conditions: 298.15 K, 101.3 kPa, Liquid, Flow calorimetry
[3] = xn = mol fraction of the nth substance listed; conditions: 298.15 K, 101.3 kPa, Liquid, vibrating tube
[4] = refractive index (Na D-line) (dimensionless); xn = mol fraction of the nth substance listed; conditions: 298.15 K, 101.3 kPa, Liquid, refractometer

CCCC(C)=O [pentan-2-one] + C1COCO1
Conditions | excess molar enthalpy [kcal/mol] | heat capacity [J/K/m3] | mass density [kg/m3] | refractive index
[1], x2 = 0.0638 | – | 1709600 | – | –
[1], x2 = 0.1404 | – | 1711100 | – | –
[1], x2 = 0.2192 | – | 1712900 | – | –
[1], x2 = 0.2981 | – | 1714700 | – | –
[1], x2 = 0.3819 | – | 1716700 | – | –
[1], x2 = 0.4598 | – | 1719100 | – | –
[1], x2 = 0.5386 | – | 1721800 | – | –
[1], x2 = 0.6171 | – | 1724700 | – | –
[1], x2 = 0.6915 | – | 1727300 | – | –
[1], x2 = 0.7737 | – | 1730500 | – | –
[1], x2 = 0.8546 | – | 1733700 | – | –
[1], x2 = 0.9324 | – | 1736700 | – | –
[2], x2 = 0.1 | 0.0128 | – | – | –
[2], x2 = 0.15 | 0.0196 | – | – | –
[2], x2 = 0.2 | 0.0266 | – | – | –
[2], x2 = 0.25 | 0.0329 | – | – | –
[2], x2 = 0.3 | 0.0375 | – | – | –
[2], x2 = 0.35 | 0.0424 | – | – | –
[2], x2 = 0.4 | 0.0462 | – | – | –
[2], x2 = 0.45 | 0.0492 | – | – | –
[2], x2 = 0.5 | 0.0504 | – | – | –
[2], x2 = 0.55 | 0.0506 | – | – | –
[2], x2 = 0.6 | 0.0498 | – | – | –
[2], x2 = 0.65 | 0.0479 | – | – | –
[2], x2 = 0.7 | 0.0449 | – | – | –
[2], x2 = 0.75 | 0.0407 | – | – | –
[2], x2 = 0.8 | 0.0353 | – | – | –
[2], x2 = 0.85 | 0.0286 | – | – | –
[2], x2 = 0.9 | 0.0205 | – | – | –
[3], x2 = 0.0882 | – | – | 816.74 | –
[3], x2 = 0.1647 | – | – | 830.91 | –
[3], x2 = 0.2307 | – | – | 843.79 | –
[3], x2 = 0.3499 | – | – | 868.72 | –
[3], x2 = 0.3798 | – | – | 875.35 | –
[3], x2 = 0.4314 | – | – | 887.14 | –
[3], x2 = 0.4631 | – | – | 894.63 | –
[3], x2 = 0.5169 | – | – | 907.82 | –
[3], x2 = 0.5183 | – | – | 908.18 | –
[3], x2 = 0.5529 | – | – | 916.98 | –
[3], x2 = 0.5897 | – | – | 926.62 | –
[3], x2 = 0.6338 | – | – | 938.59 | –
[3], x2 = 0.6667 | – | – | 947.78 | –
[3], x2 = 0.7131 | – | – | 961.29 | –
[3], x2 = 0.7174 | – | – | 962.55 | –
[3], x2 = 0.7909 | – | – | 985.17 | –
[3], x2 = 0.8704 | – | – | 1011.41 | –
[3], x2 = 0.9486 | – | – | 1039.18 | –
[4], x2 = 0.0759 | – | – | – | 1.3885
[4], x2 = 0.1654 | – | – | – | 1.38924
[4], x2 = 0.2333 | – | – | – | 1.38982
[4], x2 = 0.3134 | – | – | – | 1.39054
[4], x2 = 0.3532 | – | – | – | 1.39091
[4], x2 = 0.3984 | – | – | – | 1.39134
[4], x2 = 0.431 | – | – | – | 1.39166
[4], x2 = 0.4741 | – | – | – | 1.39208
[4], x2 = 0.5178 | – | – | – | 1.39252
[4], x2 = 0.5578 | – | – | – | 1.39293
[4], x2 = 0.5924 | – | – | – | 1.39329
[4], x2 = 0.6321 | – | – | – | 1.39372
[4], x2 = 0.6761 | – | – | – | 1.39419
[4], x2 = 0.7128 | – | – | – | 1.3946
[4], x2 = 0.7928 | – | – | – | 1.3955
[4], x2 = 0.9448 | – | – | – | 1.3973

O=C1CCCC1 [cyclopentanone] + C1COCO1
Conditions | excess molar enthalpy [kcal/mol] | heat capacity [J/K/m3] | mass density [kg/m3] | refractive index
[1], x2 = 0.0645 | – | 1713700 | – | –
[1], x2 = 0.1429 | – | 1716000 | – | –
[1], x2 = 0.3008 | – | 1720700 | – | –
[1], x2 = 0.3817 | – | 1723100 | – | –
[1], x2 = 0.4603 | – | 1725400 | – | –
[1], x2 = 0.5381 | – | 1727400 | – | –
[1], x2 = 0.6191 | – | 1729600 | – | –
[1], x2 = 0.6973 | – | 1731600 | – | –
[1], x2 = 0.8468 | – | 1734900 | – | –
[1], x2 = 0.928 | – | 1736500 | – | –
[2], x2 = 0.1 | -0.000954 | – | – | –
[2], x2 = 0.2 | -0.00204 | – | – | –
[2], x2 = 0.3 | -0.0033 | – | – | –
[2], x2 = 0.4 | -0.00437 | – | – | –
[2], x2 = 0.5 | -0.00521 | – | – | –
[2], x2 = 0.6 | -0.00564 | – | – | –
[2], x2 = 0.7 | -0.00548 | – | – | –
[2], x2 = 0.8 | -0.00463 | – | – | –
[2], x2 = 0.9 | -0.00288 | – | – | –
[3], x2 = 0.0808 | – | – | 951.41 | –
[3], x2 = 0.1586 | – | – | 958.77 | –
[3], x2 = 0.2251 | – | – | 965.28 | –
[3], x2 = 0.3113 | – | – | 974.02 | –
[3], x2 = 0.3507 | – | – | 978.14 | –
[3], x2 = 0.4024 | – | – | 983.65 | –
[3], x2 = 0.4295 | – | – | 986.6 | –
[3], x2 = 0.4749 | – | – | 991.62 | –
[3], x2 = 0.509 | – | – | 995.47 | –
[3], x2 = 0.5451 | – | – | 999.61 | –
[3], x2 = 0.5465 | – | – | 999.76 | –
[3], x2 = 0.5891 | – | – | 1004.75 | –
[3], x2 = 0.6248 | – | – | 1009 | –
[3], x2 = 0.6813 | – | – | 1015.89 | –
[3], x2 = 0.7075 | – | – | 1019.14 | –
[3], x2 = 0.7891 | – | – | 1029.57 | –
[3], x2 = 0.8629 | – | – | 1039.38 | –
[4], x2 = 0.0815 | – | – | – | 1.43248
[4], x2 = 0.1569 | – | – | – | 1.43014
[4], x2 = 0.2322 | – | – | – | 1.42774
[4], x2 = 0.3155 | – | – | – | 1.425
[4], x2 = 0.3526 | – | – | – | 1.42375
[4], x2 = 0.3965 | – | – | – | 1.42224
[4], x2 = 0.4345 | – | – | – | 1.42091
[4], x2 = 0.4742 | – | – | – | 1.41949
[4], x2 = 0.5109 | – | – | – | 1.41816
[4], x2 = 0.5558 | – | – | – | 1.4165
[4], x2 = 0.5858 | – | – | – | 1.41537
[4], x2 = 0.6334 | – | – | – | 1.41355
[4], x2 = 0.6716 | – | – | – | 1.41206
[4], x2 = 0.7127 | – | – | – | 1.41042
[4], x2 = 0.7862 | – | – | – | 1.4074
[4], x2 = 0.8695 | – | – | – | 1.40385
[4], x2 = 0.9509 | – | – | – | 1.40023

C1COCO1 [1,3-dioxolane] + O=C1CCCCC1
[2]
Conditions | excess molar enthalpy [kcal/mol]
x1 = 0.1 | 0.0153
x1 = 0.15 | 0.0214
x1 = 0.2 | 0.0265
x1 = 0.25 | 0.0309
x1 = 0.3 | 0.0348
x1 = 0.35 | 0.0382
x1 = 0.4 | 0.0399
x1 = 0.45 | 0.0409
x1 = 0.5 | 0.041
x1 = 0.55 | 0.0404
x1 = 0.6 | 0.039
x1 = 0.65 | 0.0369
x1 = 0.7 | 0.0341
x1 = 0.75 | 0.0305
x1 = 0.8 | 0.0261
x1 = 0.85 | 0.0208
x1 = 0.9 | 0.0148
